According to patent publication US20160263048A1, “BIOADHESIVE POLYMER-BASED CONTROLLED-RELEASE SYSTEMS, PRODUCTION PROCESS AND CLINICAL USES THEREOF” (priority 2010, published 2016):
Where two headings read alike, the source gives them in different places.

What was measured:
Solubility in water = type: physicochemical; conditions: molar ratio TrA/HPβCD 1:10
Excerpt: Currently used cyclodextrins are preferably semi-synthetic derivatives of β-cyclodextrin, soluble in highly polar organic solvents, marketed by Roquette or Wacker such as hydroxypropyl-βCD (HPβCD) and Methyl-βCD. The HPβCD marketed by Roquette under the name Kleptose® HP is an amorphous white powder, with a solubility in water higher than 1 g/ml. Further to this, it has a good stability both in acidic and in basic milieu and can be used to administrate drugs both by injection and by the oral route. The second one, under the name Kleptose® Crysmeb® exp, is a mixture of cyclodextrins which contain from one to seven methyl groups. Crysmeb® has an average of 4 methyl groups for one cyclodextrin molecule and has an average molecular weight of 1191 dalton. It is a white powder, easily soluble in water and its solubility grows with the temperature, and, in addition, it is very stable both in and acidic and in basic milieus.
Such a capability was tested for the buccal release of triamcinolone acetonide (TrA), a corticosteroid drug poorly soluble in water. According to the European Pharmacopeia, TrA is a drug that is practically not soluble in water, since its solubility in this vehicle is about 0.02 mg/ml. The presence of HPβCD in the film enhances TrA solubility by 600 fold, i.e., to about […] (molar ratio TrA/HPβCD 1:10). […]

[1] = cited from earlier work

| Molecule | enhancement of TrA solubility by presence of HPβCD (Solubility in water) [fold] | TrA solubility in presence of HPβCD (Solubility in water; no further enhancement at higher HPβCD concentration) | solubility in water ([1]; according to the European Pharmacopeia) | solubility in water ([1]; Kleptose® HP marketed by Roquette) |
| --- | --- | --- | --- | --- |
| CC1(C)O[C@@H]2C[C@H]3[C@@H]4CCC5=CC(=O)C=C[C@]5(C)[C@@]4(F)[C@@H](O)C[C@]3(C)[C@]2(C(=O)CO)O1 [TrA, triamcinolone acetonide] | 600 | about 4 % w/v | about 0.02 mg/ml |  |
| hydroxypropyl-βCD [HPβCD] |  |  |  | higher than 1 g/ml |
